Where two headings read alike, the source gives them in different places. Starred links: 1 amine or outer side, 2 acyl side, 3 side chain; linkers in the order of their positions; H or OH if unused. Positions of bridges follow the written chain, without caps; N, C: chain ends. Non-standard residues stand in square brackets, D forms with d. Residues, ends and D or L forms follow the SMILES beside them. ξ: configuration not given here. X2 = C[C@@](CCCCC=[*:3])(N[*:1])C(=O)[*:2]; Oic = O=C(O)[C@@H]1C[C@@H]2CCCC[C@@H]2N1; GABOB(3R) = O=C(C[C@@H](O)CN[*:1])[*:2]; d(tBuAla) = CC(C)(C)C[C@@H](N)C(=O)O; dVal(3-OH) = CC(C)(O)[C@@H](N)C(=O)O; tBuAla = CC(C)(C)C[C@H](N)C(=O)O; ξVal(3-OH) = CC(C)(O)C(N)C(=O)O; R5 = C=CCCC[C@@](C)(N)C(=O)O; X1 = O=C(CC(O)CN[*:1])[*:2]; 4Amb = NCc1ccc(C(=O)O)cc1
Key:
[1] = Aggregation / solubility at 1 mM; type: physicochemical; details: summary calls it solubility at 1mM
Summary of the method: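 Solubility and aggregation of compounds were assessed experimentally at 1 mM. Lipophilicity was determined as octanol/water partition coefficient, logP(oct/wat).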

[2] = Lipophilicity of peptides, logP(oct/wat); type: physicochemical
Summary of the method: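 Shake-flask partition between n-octanol and phosphate buffer, each phase pre-saturated with the other; peptides dissolved in buffer, partitioned at several octanol:water ratios, shaken 1 h at room temperature. After equilibration both phases assayed for peptide; logP = log(octanol/water concentration ratio).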

[3] = target: EB3 interactions with IP3R3-GFP (Homo sapiens, UniProt Q9UPY8); assay: Competitive binding: inhibition of EB3 interaction with IP3R3-GFP in vitro; type: biochemical; details: 250 nM
Description: We tested the efficacy of twenty-three compounds in inhibiting EB3 interactions with IP3R3-GFP via an in vitro approach developed by us[12],[13]. […] Guided by NMR studies, we predicted the binding pose of 109 to EB3 via AutoDock Vina[13],[24],[25].

[4] = Stability at various storage conditions; type: physicochemical; details: for amount of peptide remaining after storage: phosphate-buffered sterile saline, 8 days, LC-MS/MS
Procedure: Stability assay of peptides in various storage conditions. Peptides were dissolved and stored in phosphate-buffered sterile saline at -20, 4, 37, and 60°C for 8 days. The amount of peptide remaining after the study was analyzed by LC-MS/MS.
Supplementary Table 5. Stability of selected compounds at various storage conditions. Preliminary accelerated storage stability at various temperature conditions for the selected inhibitors was tested in phosphate-buffered sterile saline at -20 °C, 4 °C, 37 °C and 60 °C for 8 days. See also Figures 1 and 2.

[5] = tested on: HLMVECs; assay: Transendothelial electrical resistance (TEER) assay; type: cell-based, human; details: 1 µM, 1 hour pretreatment, 50 nM α-thrombin; to the same extent as EBIN
[6] = tested on: mice challenged with a PAR-1 agonist peptide; assay: PAR-1 agonist peptide-induced microvascular leakage in lung; type: in vivo, mouse; details: i.v. 1 µmol/kg bw pretreatment; n = 5–7 mice per group
Procedure: The levels of EBA extravasation in the lungs of mice challenged with PAR-1 AP and treated with these compounds were similar to those observed in control mice treated with a control PAR-1 AP ([…]-NH2), in which the positions of the first two amino acids were reversed.
PAR-1 agonist peptide-induced microvascular leakage in lung. […] Mice treated with PAR-1 control peptide ([…]-NH2) was used as negative control. For Evan’s blue albumin extravasation, Evans’s blue-labeled albumin was administered at the same time as the PAR-1 AP. Vehicle-treated mice were used as treatment control.
Evans’ blue-labeled albumin extravasation. To evaluate vascular permeability in lung tissues, mice were injected intravenously with Evans' blue-labeled albumin (25 mg/kg) 30 minutes before the collection of lung tissues. The lungs were perfused via the right ventricle with warmed phosphate-buffered saline to remove intravascular dye, and the right atrium was excised to facilitate clearance. […] The optical density of the supernatant was measured spectrophotometrically at 620 nm (Evans Blue) and 740 nm (hemoglobin correction), with the dye content normalized to the wet weight of the lungs. Corrections for hemoglobin were made as follows: Corrected absorbance (Evans blue) = Absorbance (620) - (1.426 × Absorbance (740) + 0.03). […]

[7] = tested on: CD1 mice challenged with LD90 of LPS; assay: Endotoxin-induced septic shock (LD90 LPS): survival and lung compliance; type: in vivo, mouse; details: for half maximal effective concentration (EC50) on the survival rate: LPS 30 mg/kg bw i.p. (LD90), i.v. once daily, three doses, from 20 hours after LPS, n = 10 mice per group
Procedure: To establish the effect of VT-109 on clinically translatable outcomes, we investigated its dose-dependent effect on survival rates in a murine model of septic shock (Fig. 5a, d). In experiments involving endotoxin-induced septic shock, mice were injected intraperitoneally with a lethal dose (LD) of LPS at 30 mg/kg bw, which caused 90% mortality. The treatment cohort of mice received i.v. VT-109 at doses ranging from 1 nmol/kg to 2 µmol/kg bw, which were administered once daily for a total of three doses. All the mice also received fluid resuscitation once a day for three days.
We next examined the effect of VT-109 on lung function at 250 nmol/kg bw, the dose that produced the greatest improvement in survival rates (Fig. 5a). Lung function was assessed by measuring lung compliance in mice challenged with a lethal dose of LPS (Fig. 5c). For the control, we used a non-effective dose of VT-109 at 1 nmol/kg bw, as 90% of the mice died before reaching 48 hours post-LPS treatment if left untreated. The 1 nmol/kg bw dose was not efficacious in our mortality studies but did delay death over a 48-hour period. Static lung compliance was measured at 10 cmH2O on the expiratory limb of a P‒V loop via the Salazar–Knowles equation[49].
In the survival studies, mice received i.p. corn oil at a dose of 0.35 mL two days before the challenge. CD1 mice were injected intraperitoneally with a lethal dose 90 (LD90) of LPS (Santa Cruz Biotechnology). In most experiments, this dose was 30 mg/kg bw; however, it was adjusted for each new batch of LPS in pilot studies. In the survival study, treatment with varying doses of VT-109 (1, 10, 100, 250, 500, and 2000 nmol/kg bw) was initiated 20 hours after the LPS challenge. In the lung compliance study, a non-efficacious dose (1 nmol/kg bw) of VT-109 was used as a control, while 250 nmol/kg bw of VT-109 was used for the experimental group. Both treatments were administered intravenously 20 hours after the LPS challenge. All mice received 1 mL of prewarmed saline daily for 3 days.

EB3 interactions with IP3R3-GFP, sequence (Q9UPY8 whole entry): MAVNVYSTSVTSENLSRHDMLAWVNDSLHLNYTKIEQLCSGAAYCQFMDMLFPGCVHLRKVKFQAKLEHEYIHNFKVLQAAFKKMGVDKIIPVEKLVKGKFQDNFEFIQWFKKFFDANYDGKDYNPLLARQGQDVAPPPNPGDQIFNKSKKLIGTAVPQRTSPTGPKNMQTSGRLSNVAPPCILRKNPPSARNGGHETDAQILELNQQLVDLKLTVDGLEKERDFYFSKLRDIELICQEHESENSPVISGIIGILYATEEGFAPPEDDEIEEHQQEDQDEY

Compound	Aggregation at 1mM [1]	logD ([2]; shake-flask n-octanol/phosphate buffer, mutually saturated, shaken 1 hour at room temperature, read-out: Log P (Octanol/Water))	inhibition at 0.25 µM [3]	amount of peptide remaining after storage ([4]; 4 °C)	amount of peptide remaining after storage ([4]; 37 °C)	amount of peptide remaining after storage ([4]; 60 °C)	amount of peptide remaining after storage ([4]; -20 °C)	storage stability ([4]; various storage and temperature conditions)	α-thrombin-induced changes in TEER [5]	PAR-1-mediated capillary leakage in the lung (EBA extravasation) [6]	half maximal effective concentration (EC50) on the survival rate [7]	logD [2]	storage stability [4]	static lung compliance ([7]; LD90 LPS, 250 nmol/kg bw i.v., at 10 cmH2O, n = 3‒4)	mortality ([7]; efficacious doses, starting at 100 nmol/kg bw or higher)	EC50 on the survival rate, equivalent for humans ([7]; human equivalent of 30 nmol/kg bw)	mice that died within 48 hours post-LPS challenge ([7]; lowest dose of VT-109 (1 nmol/kg))
CC(C)(C)C[C@@H]1NC(=O)[C@](C)(NC(=O)c2ccc(CNC(=O)[C@H](N)C(C)(C)O)cc2)CCC/C=C\CCCC[C@@](C)(C(=O)N[C@H](CC(C)(C)C)C(=O)O)NC(=O)CC(O)CNC(=O)[C@@H]2C[C@@H]3CCCC[C@@H]3N2C1=O (stereo partly drawn) [compound 108, (2R)-2-((8S,18R,21S,23aS,27aS,28aS,Z)-18-(4-(((R)-2-amino-3-hydroxy-3-methylbutanamido)methyl)benzamido)-4-hydroxy-8,18-dimethyl-21-neopentyl-1,6,19,22-tetraoxo-1,2,3,4,5,6,7,8,9,10,11,12,15,16,17,18,19,20,21,22,23a,24,25,26,27,27a,28,28a-octacosahydro-[1,4,7,12]tetraazacyclotetracosino[4,5-a]indole-8-carboxamido)-4,4-dimethylpentanoic acid] (H-[dVal(3-OH)][4Amb][R5][tBuAla][Oic][X1][X2][d(tBuAla)]-OH; staple (Z) 3-7)	weak signal	0.46	55%	102%	104%	104%	104%	stable	attenuated	completely blocked	308 nmol/kg bw						
CC(C)(C)C[C@@H]1NC(=O)C[C@@H](O)CNC(=O)[C@@H]2C[C@@H]3CCCC[C@@H]3N2C(=O)[C@H](CC(C)(C)C)NC(=O)c2ccc(cc2)CNC(=O)C(C(C)(C)O)NC(=O)[C@@H](Cc2ccccc2)NC1=O (stereo partly drawn) [compound 109, (1^2S,1^3aS,1^7aS,3S,10S,13R,16S,20R)-13-benzyl-20-hydroxy-10-(2-hydroxypropan-2-yl)-3,16-dineopentyl-1^2,1^3,1^3a,1^4,1^5,1^6,1^7,1^7a-octahydro-1^1H-4,8,11,14,17,22-hexaaza-1(1,2)-indola-6(1,4)-benzenacyclotricosaphane-2,5,9,12,15,18,23-heptaone.] (cyclo([4Amb][tBuAla][Oic][GABOB(3R)][tBuAla][dF][ξVal(3-OH)]))	weak signal		58%						attenuated	completely blocked	30 nmol/kg bw	0.73	stable	0.043 ± 0.001 ml/cm H₂O	reduced mortality	2.2 µg/kg bw	90%
